“And” between values parts separate entries of the source, which are not always exact repeats. Equal values may be shown once. Read-outs that look alike come from different tables or passages of the source.
Molecular target: T1, GK (glucokinase, residues 12-465) (Homo sapiens, UniProt P35557)
T1 construct: I.D. No. 1 corresponds to residues 12-465 of glucokinase; made in house; host or cells: DH10b-T1r E. coli
T1 sequence (P35557 with tags, fused parts or gaps isoform P35557-2): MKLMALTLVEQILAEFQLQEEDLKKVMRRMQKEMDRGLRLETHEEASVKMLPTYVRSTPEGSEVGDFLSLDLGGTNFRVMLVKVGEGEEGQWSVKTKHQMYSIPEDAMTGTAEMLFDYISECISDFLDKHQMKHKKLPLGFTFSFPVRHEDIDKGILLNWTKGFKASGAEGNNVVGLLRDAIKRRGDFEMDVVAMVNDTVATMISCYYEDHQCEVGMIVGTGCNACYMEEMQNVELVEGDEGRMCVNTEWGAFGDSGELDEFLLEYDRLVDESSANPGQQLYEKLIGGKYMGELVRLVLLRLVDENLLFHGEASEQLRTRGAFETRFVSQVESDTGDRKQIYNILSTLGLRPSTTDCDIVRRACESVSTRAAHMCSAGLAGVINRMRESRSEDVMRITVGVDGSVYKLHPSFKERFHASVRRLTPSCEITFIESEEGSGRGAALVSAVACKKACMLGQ
Test: enzymatic glucokinase activity assay (ATP consumption, KinaseGlo luminescence)
Format: biochemical
Conditions: 5 μM ATP, 5 mM Glucose, reported as bins; for EC50: Kact = concentration that displays 50% of the maximal increase in GK activity, 60 min, room temperature, read-out: pKact
Summary of the method: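 E. coli-expressed recombinant GK purified by two anion-exchange steps. Reaction in 25 mM Hepes pH 7.2, 10 mM MgCl2, 1 mM DTT, 5 μM ATP, 5 mM glucose, 2% DMSO, 60 min at room temperature. ATP consumption quantified by KinaseGlo luminescence; pKact and % ACTmax derived by non-linear curve fitting.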

[1] = read-out: % ACTmax, calculated maximal gain in GK enzyme activity at a saturating concentration of the compound
[2] = calculated maximal gain in GK enzyme activity at a saturating concentration of the compound, read-out: % ACTmax

SMILES	EC50	Emax [2]	Emax [1]
O=C(Nc1ncc(F)s1)[C@H](CC1CCOCC1)n1ncc2c(S(=O)(=O)C3CC3)cncc21 [Compound 84, (S)-2-(4-(cyclopropylsulfonyl)-1H-pyrazolo[3,4-c]pyridin-1-yl)-N-(5-fluorothiazol-2-yl)-3-(tetrahydro-2H-pyran-4-yl)propanamide]	≤ 316 nM		106 to 110%
O=C(Nc1ncc(F)s1)[C@@H](CC1CCOCC1)n1ncc2c(S(=O)(=O)C3CC3)cncc21 [Compound 85, (R)-2-(4-(cyclopropylsulfonyl)-1H-pyrazolo[3,4-c]pyridin-1-yl)-N-(5-fluorothiazol-2-yl)-3-(tetrahydro-2H-pyran-4-yl)propanamide]	1580 to 3160 nM		90 to 100%
N#Cc1cccnc1NC(=O)C(CC1CCOCC1)n1ncc2c(S(=O)(=O)C3CC3)cccc21 (stereo not shown) [Compound 86, N-(3-cyanopyridin-2-yl)-2-(4-(cyclopropylsulfonyl)-1H-indazol-1-yl)-3-(tetrahydro-2H-pyran-4-yl)propanamide]	≥ 15800 nM	≤ 90%	
O=C(Nc1ncc(F)s1)C(CC1CCOCC1)n1ncc2c(S(=O)(=O)C3CC3)c(OC(F)F)ccc21 (stereo not shown) [Compound 87, 2-(4-(cyclopropylsulfonyl)-5-(difluoromethoxy)-1H-indazol-1-yl)-N-(5-fluorothiazol-2-yl)-3-(tetrahydro-2H-pyran-4-yl)propanamide]	1580 to 3160 nM	90 to 100%	
O=C(Nc1ncc(F)cc1F)C(CC1CCOCC1)n1ncc2c(S(=O)(=O)C3CC3)cccc21 (stereo not shown) [Compound 88, 2-(4-(cyclopropylsulfonyl)-1H-indazol-1-yl)-N-(3,5-difluoropyridin-2-yl)-3-(tetrahydro-2H-pyran-4-yl)propanamide]	≥ 15800 nM	≤ 90%	
O=C(Nc1cnccn1)[C@H](CC1CCOCC1)n1ncc2c(S(=O)(=O)C3CC3)cccc21 [Compound 89, (S)-2-(4-(cyclopropylsulfonyl)-1H-indazol-1-yl)-N-(pyrazin-2-yl)-3-(tetrahydro-2H-pyran-4-yl)propanamide]	1580 to 3160 nM	101 to 105%	
O=C(Nc1cnccn1)[C@@H](CC1CCOCC1)n1ncc2c(S(=O)(=O)C3CC3)cccc21 [Compound 90, (R)-2-(4-(cyclopropylsulfonyl)-1H-indazol-1-yl)-N-(pyrazin-2-yl)-3-(tetrahydro-2H-pyran-4-yl)propanamide]	≥ 15800 nM	90 to 100%	
COc1ccc2c(cnn2C(CC2CCOCC2)C(=O)Nc2cnccn2)c1S(=O)(=O)C1CC1 (stereo not shown) [Compound 91, 2-(4-(cyclopropylsulfonyl)-5-methoxy-1H-indazol-1-yl)-N-(pyrazin-2-yl)-3-(tetrahydro-2H-pyran-4-yl)propanamide]	398 to 1260 nM	101 to 105%	
COc1cc(S(=O)(=O)C2CC2)c2cnn(C(CC3CCOCC3)C(=O)Nc3cnccn3)c2c1 (stereo not shown) [Compound 92, 2-(4-(cyclopropylsulfonyl)-6-methoxy-1H-indazol-1-yl)-N-(pyrazin-2-yl)-3-(tetrahydro-2H-pyran-4-yl)propanamide]	3980 to 12600 nM	≤ 90%	
COc1ccc2c(cnn2[C@H](CC2CCOCC2)C(=O)Nc2cnccn2)c1S(=O)(=O)C1CC1 [Compound 93, (R)-2-(4-(cyclopropylsulfonyl)-5-methoxy-1H-indazol-1-yl)-N-(pyrazin-2-yl)-3-(tetrahydro-2H-pyran-4-yl)propanamide]	≥ 15800 nM	≤ 90%	
COc1ccc2c(cnn2[C@@H](CC2CCOCC2)C(=O)Nc2cnccn2)c1S(=O)(=O)C1CC1 [Compound 94, (S)-2-(4-(cyclopropylsulfonyl)-5-methoxy-1H-indazol-1-yl)-N-(pyrazin-2-yl)-3-(tetrahydro-2H-pyran-4-yl)propanamide]	≤ 316 nM	90 to 100%	
Cn1ccc(NC(=O)C(CC2CCOCC2)n2ncc3c(S(=O)(=O)C4CC4)ccnc32)n1 (stereo not shown) [Compound 95, 2-(4-(cyclopropylsulfonyl)-1H-pyrazolo[3,4-b]pyridin-1-yl)-N-(1-methyl-1H-pyrazol-3-yl)-3-(tetrahydro-2H-pyran-4-yl)propanamide]	1580 to 3160 nM	101 to 105%	
Nc1cc(S(=O)(=O)C2CC2)c2cnn(C(CC3CCOCC3)C(=O)Nc3cnccn3)c2n1 (stereo not shown) [Compound 96, 2-(6-amino-4-(cyclopropylsulfonyl)-1H-pyrazolo[3,4-b]pyridin-1-yl)-N-(pyrazin-2-yl)-3-(tetrahydro-2H-pyran-4-yl)propanamide]	398 to 1260 nM	101 to 105%	
O=C(Nc1cnccn1)C(CC1CCOCC1)n1ncc2c(S(=O)(=O)C3CC3)ccnc21 (stereo not shown) [Compound 97, 2-(4-(cyclopropylsulfonyl)-1H-pyrazolo[3,4-b]pyridin-1-yl)-N-(pyrazin-2-yl)-3-(tetrahydro-2H-pyran-4-yl)propanamide]	398 to 1260 nM	106 to 110%	
Cn1ccc(NC(=O)[C@H](CC2CCOCC2)n2ncc3c(S(=O)(=O)C4CC4)ccnc32)n1 [Compound 98, (S)-2-(4-(cyclopropylsulfonyl)-1H-pyrazolo[3,4-b]pyridin-1-yl)-N-(1-methyl-1H-pyrazol-3-yl)-3-(tetrahydro-2H-pyran-4-yl)propanamide]	398 to 1260 nM	90 to 100%	
Cn1ccc(NC(=O)[C@@H](CC2CCOCC2)n2ncc3c(S(=O)(=O)C4CC4)ccnc32)n1 [Compound 99, (R)-2-(4-(cyclopropylsulfonyl)-1H-pyrazolo[3,4-b]pyridin-1-yl)-N-(1-methyl-1H-pyrazol-3-yl)-3-(tetrahydro-2H-pyran-4-yl)propanamide]	3980 to 12600 nM	90 to 100%	
NC(=O)c1ccc(NC(=O)[C@H](CC2CCOCC2)n2ncc3c(S(=O)(=O)C4CC4)cccc32)nc1 [Compound 107, (S)-6-(2-(4-(cyclopropylsulfonyl)-1H-indazol-1-yl)-3-(tetrahydro-2H-pyran-4-yl)propanamido)nicotinamide]	≤ 316 nM		≥ 111%
NC(=O)c1ccc(NC(=O)[C@@H](CC2CCOCC2)n2ncc3c(S(=O)(=O)C4CC4)cccc32)nc1 [Compound 108, (R)-6-(2-(4-(cyclopropylsulfonyl)-1H-indazol-1-yl)-3-(tetrahydro-2H-pyran-4-yl)propanamido)nicotinamide]	3980 to 12600 nM		≥ 111%

Further lines, with some results ahead:

EC50	Emax [2]	SMILES	Emax [1]
398 to 1260 nM	≤ 90%	N#Cc1cc(S(=O)(=O)C2CC2)c2cnn(C(CC3CCOCC3)C(=O)Nc3cnccn3)c2c1 (stereo not shown) [Compound 100, 2-(6-cyano-4-(cyclopropylsulfonyl)-1H-indazol-1-yl)-N-(pyrazin-2-yl)-3-(tetrahydro-2H-pyran-4-yl)propanamide]	
398 to 1260 nM	90 to 100%	Cn1ccc(NC(=O)C(CC2CCOCC2)n2ncc3c(S(=O)(=O)C4CC4)cc(Cl)cc32)n1 (stereo not shown) [Compound 101, 2-(6-chloro-4-(cyclopropylsulfonyl)-1H-indazol-1-yl)-N-(1-methyl-1H-pyrazol-3-yl)-3-(tetrahydro-2H-pyran-4-yl)propanamide]	
398 to 1260 nM	90 to 100%	O=C(Nc1cnccn1)C(CC1CCOCC1)n1ncc2c(S(=O)(=O)C3CC3)cc(Cl)cc21 (stereo not shown) [Compound 102, 2-(6-chloro-4-(cyclopropylsulfonyl)-1H-indazol-1-yl)-N-(pyrazin-2-yl)-3-(tetrahydro-2H-pyran-4-yl)propanamide]	
1580 to 3160 nM	101 to 105%	O=C(Nc1cnccn1)C(CC1CCOCC1)n1ncc2c(S(=O)(=O)C3CC3)cc(F)cc21 (stereo not shown) [Compound 103, 2-(4-(cyclopropylsulfonyl)-6-fluoro-1H-indazol-1-yl)-N-(pyrazin-2-yl)-3-(tetrahydro-2H-pyran-4-yl)propanamide]	
1580 to 3160 nM	90 to 100%	Cn1ccc(NC(=O)C(CC2CCOCC2)n2ncc3c(S(=O)(=O)C4CC4)cc(F)cc32)n1 (stereo not shown) [Compound 104, 2-(4-(cyclopropylsulfonyl)-6-fluoro-1H-indazol-1-yl)-N-(1-methyl-1H-pyrazol-3-yl)-3-(tetrahydro-2H-pyran-4-yl)propanamide]	
398 to 1260 nM and ≤ 316 nM	≤ 90%	Cn1ccc(NC(=O)[C@H](CC2CCOCC2)n2ncc3c(S(=O)(=O)C4CC4)cc(C#N)cc32)n1 [Compound 105, (S)-2-(6-cyano-4-(cyclopropylsulfonyl)-1H-indazol-1-yl)-N-(1-methyl-1H-pyrazol-3-yl)-3-(tetrahydro-2H-pyran-4-yl)propanamide]	
≥ 15800 nM	90 to 100%	Cn1ccc(NC(=O)[C@@H](CC2CCOCC2)n2ncc3c(S(=O)(=O)C4CC4)cc(C#N)cc32)n1 [Compound 106, (R)-2-(6-cyano-4-(cyclopropylsulfonyl)-1H-indazol-1-yl)-N-(1-methyl-1H-pyrazol-3-yl)-3-(tetrahydro-2H-pyran-4-yl)propanamide]	
≤ 316 nM	101 to 105%	COc1ccc2c(cnn2[C@@H](CC2CCOCC2)C(=O)Nc2ccn(C)n2)c1S(=O)(=O)C1CC1 [Compound 109, (S)-2-(4-(cyclopropylsulfonyl)-5-methoxy-1H-indazol-1-yl)-N-(1-methyl-1H-pyrazol-3-yl)-3-(tetrahydro-2H-pyran-4-yl)propanamide]	

From patent US8563730B2, “Pyrazole and fused pyrazole glucokinase activators” (Takeda San Diego, Inc., priority 2008, dated 2013)
